Legend:
Assay in all cases: relative viability (nuclei count vs DMSO), 5 days (fraction); higher = more cells survive
A-427 = test system: A-427
Procedure, shortened: (§1)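 For relative viability, nuclei counts in treated wells were divided by those in vehicle wells. Lung cancer cell lines had been pin-tool dosed in 1536-well plates the day after seeding and cultured for 5 days, then fixed and stained in one step (final 0.05% Triton X-100, 1% formaldehyde, 1 ug/ml Hoechst) and imaged at 4×. Doses were one drug alone or a fixed anchor-drug dose plus five library-drug doses (not always all listed) in √10 steps, and values are duplicate-plate medians.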

COR-L 105 = test system: COR-L 105
Procedure, shortened: as §1

ChaGo-K-1 = test system: ChaGo-K-1
Procedure, shortened: as §1

EKVX = test system: EKVX
Procedure, shortened: as §1

EMC-BAC-2 = test system: EMC-BAC-2
Procedure, shortened: as §1

H3255 = test system: H3255
Procedure, shortened: as §1

HCC-366 = test system: HCC-366
Procedure, shortened: as §1

LK-2 = test system: LK-2
Procedure, shortened: as §1

LOU-NH91 = test system: LOU-NH91
Procedure, shortened: as §1

NCI-H1666 = test system: NCI-H1666
Procedure, shortened: as §1

NCI-H1734 = test system: NCI-H1734
Procedure, shortened: as §1

NCI-H1755 = test system: NCI-H1755
Procedure, shortened: as §1

NCI-H1975 = test system: NCI-H1975
Procedure, shortened: as §1

NCI-H2170 = test system: NCI-H2170
Procedure, shortened: as §1

NCI-H23 = test system: NCI-H23
Procedure, shortened: as §1

NCI-H441 = test system: NCI-H441
Procedure, shortened: as §1

NCI-H520 = test system: NCI-H520
Procedure, shortened: as §1

PC-3 [JPC-3] = test system: PC-3 [JPC-3]
Procedure, shortened: as §1

SK-MES-1 = test system: SK-MES-1
Procedure, shortened: as §1

SW 900 = test system: SW 900
Procedure, shortened: as §1

SMILES: O=c1cc(-c2cccc3c2Sc2ccccc2S3)oc(N2CCOCC2)c1 + CC(=O)c1c(C)c2cnc(Nc3ccc(N4CCNCC4)cn3)nc2n(C2CCCC2)c1=O [Palbociclib] (partner 0.5 µM)
- relative viability (A-427; first compound 0.08 µM): 0.513
- relative viability (A-427; first compound 0.253 µM): 0.509
- relative viability (A-427; first compound 0.8 µM): 0.49
- relative viability (A-427; first compound 2.53 µM): 0.502
- relative viability (A-427; first compound 8 µM): 0.548
- relative viability (COR-L 105; first compound 0.08 µM): 0.349
- relative viability (COR-L 105; first compound 0.253 µM): 0.319
- relative viability (COR-L 105; first compound 0.8 µM): 0.385
- relative viability (COR-L 105; first compound 2.53 µM): 0.413
- relative viability (COR-L 105; first compound 8 µM): 0.416
- relative viability (ChaGo-K-1; first compound 0.08 µM): 0.942
- relative viability (ChaGo-K-1; first compound 0.253 µM): 1.12
- relative viability (ChaGo-K-1; first compound 0.8 µM): 0.842
- relative viability (ChaGo-K-1; first compound 2.53 µM): 0.899
- relative viability (ChaGo-K-1; first compound 8 µM): 1.09
- relative viability (EKVX; first compound 0.08 µM): 0.582
- relative viability (EKVX; first compound 0.253 µM): 0.657
- relative viability (EKVX; first compound 0.8 µM): 0.345
- relative viability (EKVX; first compound 2.53 µM): 0.321
- relative viability (EKVX; first compound 8 µM): 0.399
- relative viability (EMC-BAC-2; first compound 0.08 µM): 0.511
- relative viability (EMC-BAC-2; first compound 0.253 µM): 0.529
- relative viability (EMC-BAC-2; first compound 0.8 µM): 0.536
- relative viability (EMC-BAC-2; first compound 2.53 µM): 0.538
- relative viability (EMC-BAC-2; first compound 8 µM): 0.543
- relative viability (H3255; first compound 0.08 µM): 0.334
- relative viability (H3255; first compound 0.253 µM): 0.295
- relative viability (H3255; first compound 0.8 µM): 0.305
- relative viability (H3255; first compound 2.53 µM): 0.278
- relative viability (H3255; first compound 8 µM): 0.33
- relative viability (HCC-366; first compound 0.08 µM): 0.436
- relative viability (HCC-366; first compound 0.253 µM): 0.349
- relative viability (HCC-366; first compound 0.8 µM): 0.487
- relative viability (HCC-366; first compound 2.53 µM): 0.401
- relative viability (HCC-366; first compound 8 µM): 0.51
- relative viability (LK-2; first compound 0.08 µM): 0.515
- relative viability (LK-2; first compound 0.253 µM): 0.8
- relative viability (LK-2; first compound 0.8 µM): 0.637
- relative viability (LK-2; first compound 2.53 µM): 0.767
- relative viability (LK-2; first compound 8 µM): 0.881
- relative viability (LOU-NH91; first compound 0.08 µM): 0.528
- relative viability (LOU-NH91; first compound 0.253 µM): 0.518
- relative viability (LOU-NH91; first compound 0.8 µM): 0.543
- relative viability (LOU-NH91; first compound 2.53 µM): 0.535
- relative viability (LOU-NH91; first compound 8 µM): 0.571
- relative viability (NCI-H1666; first compound 0.08 µM): 0.638
- relative viability (NCI-H1666; first compound 0.253 µM): 0.673
- relative viability (NCI-H1666; first compound 0.8 µM): 0.679
- relative viability (NCI-H1666; first compound 2.53 µM): 0.659
- relative viability (NCI-H1666; first compound 8 µM): 0.601
- relative viability (NCI-H1734; first compound 0.08 µM): 0.33
- relative viability (NCI-H1734; first compound 0.253 µM): 0.344
- relative viability (NCI-H1734; first compound 0.8 µM): 0.414
- relative viability (NCI-H1734; first compound 8 µM): 0.357
- relative viability (NCI-H1755; first compound 0.08 µM): 0.436
- relative viability (NCI-H1755; first compound 0.253 µM): 0.464
- relative viability (NCI-H1755; first compound 0.8 µM): 0.463
- relative viability (NCI-H1755; first compound 2.53 µM): 0.383
- relative viability (NCI-H1755; first compound 8 µM): 0.409
- relative viability (NCI-H1975; first compound 0.08 µM): 0.623
- relative viability (NCI-H1975; first compound 0.253 µM): 0.863
- relative viability (NCI-H1975; first compound 0.8 µM): 0.465
- relative viability (NCI-H1975; first compound 2.53 µM): 0.564
- relative viability (NCI-H1975; first compound 8 µM): 0.744
- relative viability (NCI-H2170; first compound 0.08 µM): 0.45
- relative viability (NCI-H2170; first compound 0.253 µM): 0.482
- relative viability (NCI-H2170; first compound 0.8 µM): 0.414
- relative viability (NCI-H2170; first compound 2.53 µM): 0.354
- relative viability (NCI-H2170; first compound 8 µM): 0.359
- relative viability (NCI-H23; first compound 0.08 µM): 0.57
- relative viability (NCI-H23; first compound 0.253 µM): 0.485
- relative viability (NCI-H23; first compound 0.8 µM): 0.498
- relative viability (NCI-H23; first compound 2.53 µM): 0.451
- relative viability (NCI-H23; first compound 8 µM): 0.451
- relative viability (NCI-H441; first compound 0.08 µM): 0.189
- relative viability (NCI-H441; first compound 0.253 µM): 0.187
- relative viability (NCI-H441; first compound 0.8 µM): 0.215
- relative viability (NCI-H441; first compound 2.53 µM): 0.203
- relative viability (NCI-H441; first compound 8 µM): 0.18
- relative viability (NCI-H520; first compound 0.08 µM): 0.233
- relative viability (NCI-H520; first compound 0.253 µM): 0.22
- relative viability (NCI-H520; first compound 0.8 µM): 0.21
- relative viability (NCI-H520; first compound 2.53 µM): 0.243
- relative viability (NCI-H520; first compound 8 µM): 0.231
- relative viability (PC-3 [JPC-3]; first compound 0.08 µM): 0.471
- relative viability (PC-3 [JPC-3]; first compound 0.253 µM): 0.54
- relative viability (PC-3 [JPC-3]; first compound 0.8 µM): 0.559
- relative viability (PC-3 [JPC-3]; first compound 2.53 µM): 0.482
- relative viability (PC-3 [JPC-3]; first compound 8 µM): 0.584
- relative viability (SK-MES-1; first compound 0.08 µM): 0.311
- relative viability (SK-MES-1; first compound 0.253 µM): 0.321
- relative viability (SK-MES-1; first compound 0.8 µM): 0.313
- relative viability (SK-MES-1; first compound 2.53 µM): 0.294
- relative viability (SK-MES-1; first compound 8 µM): 0.286
- relative viability (SW 900; first compound 0.253 µM): 0.557
- relative viability (SW 900; first compound 0.8 µM): 0.555
- relative viability (SW 900; first compound 2.53 µM): 0.492
- relative viability (SW 900; first compound 8 µM): 0.469
